Target: hERG potassium channel (Homo sapiens, UniProt Q12809)
Assay: hERG screening assay (PatchXpress patch clamp, CHO cells)

Sequence of hERG potassium channel (Q12809 whole entry): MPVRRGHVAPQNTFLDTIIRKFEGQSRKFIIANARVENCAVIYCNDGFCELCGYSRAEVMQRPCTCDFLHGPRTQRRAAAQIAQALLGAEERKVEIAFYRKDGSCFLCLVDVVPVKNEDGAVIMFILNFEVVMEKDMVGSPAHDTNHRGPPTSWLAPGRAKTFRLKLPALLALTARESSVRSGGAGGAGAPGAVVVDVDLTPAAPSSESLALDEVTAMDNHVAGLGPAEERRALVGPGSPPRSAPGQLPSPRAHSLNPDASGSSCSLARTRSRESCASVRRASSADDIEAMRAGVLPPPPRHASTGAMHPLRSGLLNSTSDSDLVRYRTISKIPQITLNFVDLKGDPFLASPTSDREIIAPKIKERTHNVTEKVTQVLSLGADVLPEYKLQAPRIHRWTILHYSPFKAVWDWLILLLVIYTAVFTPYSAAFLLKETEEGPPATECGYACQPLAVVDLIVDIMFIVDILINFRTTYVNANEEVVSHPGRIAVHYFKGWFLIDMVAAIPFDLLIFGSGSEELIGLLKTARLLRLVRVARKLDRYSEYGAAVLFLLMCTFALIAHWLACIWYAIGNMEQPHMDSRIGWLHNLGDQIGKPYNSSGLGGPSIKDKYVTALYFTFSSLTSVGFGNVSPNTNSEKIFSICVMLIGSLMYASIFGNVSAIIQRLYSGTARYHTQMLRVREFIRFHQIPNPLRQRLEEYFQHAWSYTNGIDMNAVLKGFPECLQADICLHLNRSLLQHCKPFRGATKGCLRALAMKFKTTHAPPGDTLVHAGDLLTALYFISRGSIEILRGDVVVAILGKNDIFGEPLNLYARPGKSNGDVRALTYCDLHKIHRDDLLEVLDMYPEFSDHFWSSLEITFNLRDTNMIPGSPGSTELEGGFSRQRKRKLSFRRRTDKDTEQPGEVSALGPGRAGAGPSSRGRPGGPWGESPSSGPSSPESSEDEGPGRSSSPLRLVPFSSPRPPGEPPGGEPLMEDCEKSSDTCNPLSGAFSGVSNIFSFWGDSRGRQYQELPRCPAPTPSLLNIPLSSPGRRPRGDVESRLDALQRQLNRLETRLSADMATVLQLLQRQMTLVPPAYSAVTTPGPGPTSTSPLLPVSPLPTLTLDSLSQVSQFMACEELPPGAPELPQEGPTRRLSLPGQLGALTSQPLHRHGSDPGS

Which results are given for `CCOC(=O)C1=C(C)NC2=C(C(=O)CCC2)C1c1ccnc2ccccc12` (centres unmarked) [PT-190, ethyl 2-methyl-5-oxo-1,4,5,6,7,8-hexahydro-4,4′-biquinoline-3-carboxylate]?
hERG Patch Clamp hERG % blk (1 μM test cmpd): 10.5%; hERG Patch Clamp hERG % blk (10 μM test cmpd): 32%

`CC1=C(C(=O)OCc2ccccc2)C(c2nccs2)n2nccc2N1` (centres unmarked) [PT-363, benzyl 5-methyl-7-(thiazol-2-yl)-4,7-dihydropyrazolo[1,5-a]pyrimidine-6-carboxylate] was tested. Which “hERG Patch Clamp hERG % blk (1 μM test cmpd)” value did it give?
Its value is 10%.

What about the “hERG Patch Clamp hERG % blk (10 μM test cmpd)” value of the same compound?
The value was 19.5%.

What does the source list for `CC1=C(C(=O)NCc2ccccc2)C(c2ccc3ccccc3c2)n2nnnc2N1` (centres unmarked) [PT-068, N-benzyl-5-methyl-7-(naphthalen-2-yl)-4,7-dihydrotetrazolo[1,5-a]pyrimidine-6-carboxamide]?
hERG Patch Clamp hERG % blk (1 μM test cmpd): 14%; hERG Patch Clamp hERG % blk (10 μM test cmpd): 22.5%

For `CC1=C(C(=O)OCc2ccccc2)C(c2nccs2)c2cn[nH]c2N1` (centres unmarked) [PT-369, benzyl 6-methyl-4-(thiazol-2-yl)-4,7-dihydro-1H-pyrazolo[3,4-b]pyridine-5-carboxylate], which “hERG Patch Clamp hERG % blk (1 μM test cmpd)” value is on record?
The value was 10%.

And the “hERG Patch Clamp hERG % blk (10 μM test cmpd)” value?
Its value is 25%.

For `COc1ccc(COC(=O)C2=C(C)Nc3nnnn3C2c2cccc3ccccc23)cc1OC` (centres unmarked) [PT-061, 3,4-dimethoxybenzyl 5-methyl-7-(naphthalen-1-yl)-4,7-dihydrotetrazolo[1,5-a]pyrimidine-6-carboxylate], which “hERG Patch Clamp hERG % blk (1 μM test cmpd)” value is on record?
The value was 24%.

What about the “hERG Patch Clamp hERG % blk (10 μM test cmpd)” value of the same compound?
Its value is 46.5%.

`CC1=C(C(=O)OCc2ccccc2)C(c2ccc(N(C)C)c3ccccc23)n2nnnc2N1` (centres unmarked) [PT-032, benzyl 7-(4-(dimethylamino)naphthalen-1-yl)-5-methyl-4,7-dihydrotetrazolo[1,5-a]pyrimidine-6-carboxylate] was tested. Which “hERG Patch Clamp hERG % blk (1 μM test cmpd)” value did it give?
The value was 19%.

And the “hERG Patch Clamp hERG % blk (10 μM test cmpd)” value?
The value was 50.5%.

How did the “hERG Patch Clamp hERG % blk (1 μM test cmpd)” value turn out when `CC1=C(C(=O)OCc2ccccc2)C(c2ccccc2-c2ccc(C(=O)O)cc2)n2nnnc2N1` (centres unmarked) [PT-254, 2′-(6-(benzyloxycarbonyl)-5-methyl-4,7-dihydrotetrazolo[1,5-a]pyrimidin-7-yl)biphenyl-4-carboxylic acid] was run?
Its value is 15%.

What about the “hERG Patch Clamp hERG % blk (10 μM test cmpd)” value of the same compound?
Its value is 20%.

Which “hERG Patch Clamp hERG % blk (1 μM test cmpd)” value does the source give for `CCOC(=O)C1=C(C)Nc2[nH]ncc2C1c1ccc(OC)cc1OCc1ccccc1` (centres unmarked) [PT-445, ethyl 4-(2-(benzyloxy)-4-methoxyphenyl)-6-methyl-4,7-dihydro-1H-pyrazolo[3,4-b]pyridine-5-carboxylate] here?
Its value is 10.5%.

What about the “hERG Patch Clamp hERG % blk (10 μM test cmpd)” value of the same compound?
The value was 50%.

How did the “hERG Patch Clamp hERG % blk (1 μM test cmpd)” value turn out when `CC1=C(C(=O)OCc2ccccc2)C(c2c(-c3ccc(C(=O)O)cc3)sc3ccccc23)n2nnnc2N1` (centres unmarked) [PT-294, 4-(3-(6-(benzyloxycarbonyl)-5-methyl-4,7-dihydrotetrazolo[1,5-a]pyrimidin-7-yl)benzo[b]thiophen-2-yl)benzoic acid] was run?
The value was 12.5%.

And the “hERG Patch Clamp hERG % blk (10 μM test cmpd)” value?
The value was 15.5%.

`CCOC(=O)C1=C(C)NC2=C(C(=O)CCC2)C1c1cccc2ncccc12` (centres unmarked) [PT-140, ethyl 2-methyl-5-oxo-1,4,5,6,7,8-hexahydro-4,5′-biquinoline-3-carboxylate] was tested. Which “hERG Patch Clamp hERG % blk (1 μM test cmpd)” value did it give?
The value was 13.5%.

What about the “hERG Patch Clamp hERG % blk (10 μM test cmpd)” value of the same compound?
The value was 34.5%.

Which results are given for `CCOC(=O)C1=C(C)Nc2nnnn2C1c1ccccc1-n1ccnc1.Cl` (centres unmarked) [PT-476, ethyl 7-(2-(1H-imidazol-1-yl)phenyl)-5-methyl-4,7-dihydrotetrazolo[1,5-a]pyrimidine-6-carboxylate hydrochloride]?
hERG Patch Clamp hERG % blk (1 μM test cmpd): 17.5%; hERG Patch Clamp hERG % blk (10 μM test cmpd): 23%

`COc1cc(Cl)ccc1COC(=O)C1=C(C)Nc2nnnn2C1c1c(C)cccc1C` (centres unmarked) [PT-307, 4-chloro-2-methoxybenzyl 7-(2,6-dimethylphenyl)-5-methyl-4,7-dihydrotetrazolo[1,5-a]pyrimidine-6-carboxylate] was tested. Which “hERG Patch Clamp hERG % blk (1 μM test cmpd)” value did it give?
Its value is 10%.

What about the “hERG Patch Clamp hERG % blk (10 μM test cmpd)” value of the same compound?
The value was 62.5%.

For `CC1=C(C(=O)O[C@@H](C)c2ccccc2)[C@@H](c2cccc3ccccc23)n2nnnc2N1` [PT-050, (R)-((S)-1-phenylethyl) 5-methyl-7-(naphthalen-1-yl)-4,7-dihydrotetrazolo[1,5-a]pyrimidine-6-carboxylate], which “hERG Patch Clamp hERG % blk (1 μM test cmpd)” value is on record?
Its value is 10%.

What about the “hERG Patch Clamp hERG % blk (10 μM test cmpd)” value of the same compound?
The value was 53.5%.

Which “hERG Patch Clamp hERG % blk (1 μM test cmpd)” value does the source give for `CC1=C(C(=O)OCc2ccccc2)C(c2ccccc2-c2ccccc2)n2nnnc2N1` (centres unmarked) [PT-025, benzyl 7-(biphenyl-2-yl)-5-methyl-4,7-dihydrotetrazolo[1,5-a]pyrimidine-6-carboxylate] here?
The value was 11%.

And the “hERG Patch Clamp hERG % blk (10 μM test cmpd)” value?
The value was 53%.

How did the “hERG Patch Clamp hERG % blk (1 μM test cmpd)” value turn out when `CC1=C(C(=O)OCc2ccccc2)C(c2cccc3c2OCO3)n2nnnc2N1` (centres unmarked) [PT-034, benzyl 7-(benzo[d][1,3]dioxol-4-yl)-5-methyl-4,7-dihydrotetrazolo[1,5-a]pyrimidine-6-carboxylate] was run?
Its value is 14.5%.

What about the “hERG Patch Clamp hERG % blk (10 μM test cmpd)” value of the same compound?
Its value is 56%.

For `CC1=C(C(=O)OCc2ccccc2)C(c2ccccc2-c2ccc(C(=O)O)cc2)C2=C(CCCC2=O)N1` (centres unmarked) [PT-249, 2′-(3-(benzyloxycarbonyl)-2-methyl-5-oxo-1,4,5,6,7,8-hexahydroquinolin-4-yl)biphenyl-4-carboxylic acid], which “hERG Patch Clamp hERG % blk (1 μM test cmpd)” value is on record?
Its value is 11.5%.

And the “hERG Patch Clamp hERG % blk (10 μM test cmpd)” value?
Its value is 15.5%.

`CCOC(=O)C1=C(C)Nc2[nH]nc(C)c2C1c1cccc2ccccc12` (centres unmarked) [PT-074, ethyl 3,6-dimethyl-4-(naphthalen-1-yl)-4,7-dihydro-1H-pyrazolo[3,4-b]pyridine-5-carboxylate] was tested. Which “hERG Patch Clamp hERG % blk (1 μM test cmpd)” value did it give?
Its value is 14%.

And the “hERG Patch Clamp hERG % blk (10 μM test cmpd)” value?
The value was 43%.

What does the source list for `CC1=C(C(=O)OC(C)Cc2ccccc2)C(c2cccc3ccccc23)n2nnnc2N1` (centres unmarked) [PT-064, 1-phenylpropan-2-yl 5-methyl-7-(naphthalen-1-yl)-4,7-dihydrotetrazolo[1,5-a]pyrimidine-6-carboxylate]?
hERG Patch Clamp hERG % blk (1 μM test cmpd): 20.5%; hERG Patch Clamp hERG % blk (10 μM test cmpd): 37.5%

Which “hERG Patch Clamp hERG % blk (1 μM test cmpd)” value does the source give for `CCOC(=O)C1=C(C)Nc2nnnn2C1c1ccccc1-n1ccnc1C.Cl` (centres unmarked) [PT-457, ethyl 5-methyl-7-(2-(2-methyl-1H-imidazol-1-yl)phenyl)-4,7-dihydrotetrazolo[1,5-a]pyrimidine-6-carboxylate hydrochloride] here?
Its value is 10%.

And the “hERG Patch Clamp hERG % blk (10 μM test cmpd)” value?
Its value is 21%.

`CC1=C(C(=O)OCc2ccccc2)C(c2ccccc2-c2cccc(NS(C)(=O)=O)c2)n2nnnc2N1` (centres unmarked) [PT-348, benzyl 5-methyl-7-(3′-(methylsulfonamido)biphenyl-2-yl)-4,7-dihydrotetrazolo[1,5-a]pyrimidine-6-carboxylate] was tested. Which “hERG Patch Clamp hERG % blk (1 μM test cmpd)” value did it give?
The value was 10%.

What about the “hERG Patch Clamp hERG % blk (10 μM test cmpd)” value of the same compound?
The value was 38.5%.

Which results are given for `CC1=C(C(=O)OCc2ccc(Cn3cccn3)cc2)C(c2cccs2)n2nnnc2N1` (centres unmarked) [PT-280, 4-((1H-pyrazol-1-yl)methyl)benzyl 5-methyl-7-(thiophen-2-yl)-4,7-dihydrotetrazolo[1,5-a]pyrimidine-6-carboxylate]?
hERG Patch Clamp hERG % blk (1 μM test cmpd): 11.5%; hERG Patch Clamp hERG % blk (10 μM test cmpd): 48%

What does the source list for `CC1=C(C(=O)OCc2ccccc2)C(c2occc2-c2ccc(F)cc2)n2nnnc2N1` (centres unmarked) [PT-396, benzyl 7-(3-(4-fluorophenyl)furan-2-yl)-5-methyl-4,7-dihydrotetrazolo[1,5-a]pyrimidine-6-carboxylate]?
hERG Patch Clamp hERG % blk (1 μM test cmpd): 10%; hERG Patch Clamp hERG % blk (10 μM test cmpd): 32%

What does the source list for `CCCC1=C(C(=O)OCC)C(c2ccc(C(=O)O)cc2)C2=C(CC(C)(C)CC2=O)N1` (centres unmarked) [PT-133, 4-(3-(ethoxycarbonyl)-7,7-dimethyl-5-oxo-2-propyl-1,4,5,6,7,8-hexahydroquinolin-4-yl)benzoic acid]?
hERG Patch Clamp hERG % blk (1 μM test cmpd): 10%; hERG Patch Clamp hERG % blk (10 μM test cmpd): 12%

Which results are given for `CC1=C(C(=O)OCc2ccccc2)C(c2ccccc2N2CCN(C)CC2)n2nnnc2N1` (centres unmarked) [PT-340, benzyl 5-methyl-7-(2-(4-methylpiperazin-1-yl)phenyl)-4,7-dihydrotetrazolo[1,5-a]pyrimidine-6-carboxylate]?
hERG Patch Clamp hERG % blk (1 μM test cmpd): 57%; hERG Patch Clamp hERG % blk (10 μM test cmpd): 93.5%

How did the “hERG Patch Clamp hERG % blk (1 μM test cmpd)” value turn out when `CCOC(=O)C1=C(C)Nc2nnnn2C1c1csc2ccccc12` (centres unmarked) [PT-017, ethyl 7-(benzo[b]thiophen-3-yl)-5-methyl-4,7-dihydrotetrazolo[1,5-a]pyrimidine-6-carboxylate] was run?
The value was 10%.

And the “hERG Patch Clamp hERG % blk (10 μM test cmpd)” value?
Its value is 23.5%.

With `CCOC(=O)C1=C(C)Nc2nnnn2C1c1ccccc1-n1cccn1.Cl` (centres unmarked) [PT-477, ethyl 7-(2-(1H-pyrazol-1-yl)phenyl)-5-methyl-4,7-dihydrotetrazolo[1,5-a]pyrimidine-6-carboxylate hydrochloride] as the compound, how does the “hERG Patch Clamp hERG % blk (1 μM test cmpd)” value read?
Its value is 12%.

And the “hERG Patch Clamp hERG % blk (10 μM test cmpd)” value?
The value was 44%.

How did the “hERG Patch Clamp hERG % blk (1 μM test cmpd)” value turn out when `COC(=O)C1=C(C)Nc2nnnn2C1c1cccc2ccccc12` (centres unmarked) [PT-512, methyl 5-methyl-7-(naphthalen-1-yl)-4,7-dihydrotetrazolo[1,5-a]pyrimidine-6-carboxylate] was run?
Its value is 10.5%.

And the “hERG Patch Clamp hERG % blk (10 μM test cmpd)” value?
Its value is 14%.

What does the source list for `CCOC(=O)C1=C(C)Nc2[nH]ncc2C1c1ccccc1Br` (centres unmarked) [PT-448, ethyl 4-(2-bromophenyl)-6-methyl-4,7-dihydro-1H-pyrazolo[3,4-b]pyridine-5-carboxylate]?
hERG Patch Clamp hERG % blk (1 μM test cmpd): 10%; hERG Patch Clamp hERG % blk (10 μM test cmpd): 57.5%

With `COC(=O)c1ccc(-c2n[nH]c3c2C(c2cccc4ccccc24)C2=C(COC2=O)N3)cc1` (centres unmarked) [PT-085, methyl 4-(4-(naphthalen-1-yl)-5-oxo-4,5,7,8-tetrahydro-1H-furo[3,4-b]pyrazolo[4,3-e]pyridin-3-yl)benzoate] as the compound, how does the “hERG Patch Clamp hERG % blk (1 μM test cmpd)” value read?
Its value is 34%.

What about the “hERG Patch Clamp hERG % blk (10 μM test cmpd)” value of the same compound?
The value was 44.5%.

With `CC1=C(C(=O)OCc2ccccc2)C(c2ccccc2N2CCCCC2)n2nnnc2N1` (centres unmarked) [PT-342, benzyl 5-methyl-7-(2-(piperidin-1-yl)phenyl)-4,7-dihydrotetrazolo[1,5-a]pyrimidine-6-carboxylate] as the compound, how does the “hERG Patch Clamp hERG % blk (1 μM test cmpd)” value read?
Its value is 10%.

What about the “hERG Patch Clamp hERG % blk (10 μM test cmpd)” value of the same compound?
Its value is 47.5%.

Which “hERG Patch Clamp hERG % blk (1 μM test cmpd)” value does the source give for `CC1=C(c2nnc(CCc3ccccc3)o2)C(c2cccc3ccccc23)n2nnnc2N1` (centres unmarked) [PT-252, 2-(5-methyl-7-(naphthalen-1-yl)-4,7-dihydrotetrazolo[1,5-a]pyrimidin-6-yl)-5-phenethyl-1,3,4-oxadiazole] here?
Its value is 10.5%.

And the “hERG Patch Clamp hERG % blk (10 μM test cmpd)” value?
Its value is 78%.

— US20090181986A1, “SUBSTITUTED HETEROCYCLIC COMPOUNDS” (priority 2007, published 2009)
